Results: patent publication US8450527B2, “Amine derivative compounds for treating ophthalmic diseases and disorders” (Acucela Inc., priority 2007, dated 2013)

Target: T1, visual cycle isomerase (Mus musculus, UniProt Q91ZQ5)
T1 construct: The recovery of 11-cis-retinal after bleaching can be used to estimate the activity of isomerase in vivo; from tissue; host or cells: eye (RPE) of living CD-1 albino male mice
T1 sequence (Q91ZQ5 1-533): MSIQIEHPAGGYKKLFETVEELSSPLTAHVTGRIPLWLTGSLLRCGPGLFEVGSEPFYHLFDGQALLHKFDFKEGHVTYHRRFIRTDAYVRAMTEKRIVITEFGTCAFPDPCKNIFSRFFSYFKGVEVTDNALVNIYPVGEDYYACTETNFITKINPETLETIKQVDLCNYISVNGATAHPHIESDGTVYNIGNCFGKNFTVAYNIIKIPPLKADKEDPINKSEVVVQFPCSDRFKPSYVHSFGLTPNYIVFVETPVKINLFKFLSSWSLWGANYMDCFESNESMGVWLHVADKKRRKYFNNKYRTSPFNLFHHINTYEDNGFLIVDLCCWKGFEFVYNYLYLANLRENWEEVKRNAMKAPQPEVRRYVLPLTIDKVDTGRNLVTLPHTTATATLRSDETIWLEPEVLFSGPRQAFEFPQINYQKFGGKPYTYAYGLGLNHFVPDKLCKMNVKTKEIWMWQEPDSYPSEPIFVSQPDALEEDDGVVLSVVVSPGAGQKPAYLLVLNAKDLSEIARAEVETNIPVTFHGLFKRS
Test: in vivo murine isomerase assay: recovery of 11-cis-retinal (oxime) after photobleaching
Description: FIG. 1 illustrates isomerase inhibitory activity of the compound of Example 3 (Compound 3). The animals were orally gavaged with 1 mg/kg compound, then “photo-bleached” (5000 Lux white light for 10 minutes) at 4, 24 and 48 hours after dosing, and returned to darkness to allow recovery of the 11-cis-retinal content of the eyes. Mice were sacrificed 2 hours after bleaching, eyes were enucleated, and retinoid content was analyzed by HPLC.
FIG. 2 illustrates concentration-dependent inhibition of isomerase activity by the compound of Example 19 (Compound 19). […] Five animals were included in each treatment group. The error bars correspond to standard error.
A method for determining the effect of a compound on isomerase activity may be performed in vitro as described herein and in the art (Stecher et al., J Biol Chem 274:8577-85 (1999); see also Golczak et al., Proc. Natl. Acad. Sci. USA 102:8162-67 (2005)). Retinal pigment epithelium (RPE) microsome membranes isolated from an animal (such as bovine, porcine, human, for example) may serve as the source of the isomerase. The capability of the amine derivative compounds to inhibit isomerase may also be determined by an in vivo murine isomerase assay. Brief exposure of the eye to intense light (“photobleaching” of the visual pigment or simply “bleaching”) is known to photo-isomerize almost all 11-cis-retinal in the retina. […]

Compound: CCCC(O)(CCC)CCc1cccc(C(O)CCN)c1 (centres unmarked) [Example 19, 4-(3-(3-amino-1-hydroxypropyl)phenethyl)heptan-4-ol]
- inhibition of 11-cis retinal (oxime) recovery (FIG. 2A/2B, dose response): dose related
- ED50 (mouse, read-out: ED50 (dose of compound that gives 50% inhibition of 11-cis retinal (oxime) recovery), FIG. 2, five animals per treatment group, estimated from dose response): ~0.651 mg/kg
